Values belong to the molecule of their own block, whether it stands above or below them.
Tests used:
Assay in all cases: cells
P30-OHK = format: functional, cell-based, Homo sapiens; details: Homo sapiens, P30-OHK;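 note: growth inhibition of the P30-OHK cell line, read out with a cell viability assay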
Description: SANGER: Inhibition of human P30-OHK cell growth in a cell viability assay.

K562 = format: functional, cell-based, Homo sapiens; details: Homo sapiens, K562
Description: SANGER: Inhibition of human K-562 cell growth in a cell viability assay.

Mo = format: functional, cell-based, Homo sapiens; details: Homo sapiens, Mo
Description: SANGER: Inhibition of human Mo-T cell growth in a cell viability assay.

MZ7-mel = format: functional, cell-based, Homo sapiens; details: Homo sapiens, MZ7-mel;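 note: growth inhibition of human MZ7-mel cells, measured by a cell viability assay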
Description: SANGER: Inhibition of human MZ7-mel cell growth in a cell viability assay.

A3-KAW = format: functional, cell-based, Homo sapiens; details: Homo sapiens, A3-KAW;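 note: growth inhibition of human A3-KAW cells, read out with a cell viability assay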
Description: SANGER: Inhibition of human A3-KAW cell growth in a cell viability assay.

Calu-6 = format: functional, cell-based, Homo sapiens; details: Homo sapiens, Calu-6;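 note: growth of human Calu-6 cells, read out by a cell viability assay, IC50 marking inhibition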
Description: SANGER: Inhibition of human Calu-6 cell growth in a cell viability assay.

NOS-1 = format: functional, cell-based, Homo sapiens; details: Homo sapiens, NOS-1;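 note: growth inhibition of the human NOS-1 cell line, read out with a cell viability assay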
Description: SANGER: Inhibition of human NOS-1 cell growth in a cell viability assay.

SF-539 = format: functional, cell-based, Homo sapiens; details: Homo sapiens, SF-539;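 note: Read-out is a cell viability assay, with IC50 reflecting inhibition of cell growth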
Description: SANGER: Inhibition of human SF539 cell growth in a cell viability assay.

NB69 = format: functional, cell-based, Homo sapiens; details: Homo sapiens, NB69;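 note: growth inhibition of NB69 cells, determined by a cell viability assay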
Description: SANGER: Inhibition of human NB69 cell growth in a cell viability assay.

KP-N-YS = format: functional, cell-based, Homo sapiens; details: Homo sapiens, KP-N-YS;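 note: cell viability assay measuring inhibition of cell line growth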
Description: SANGER: Inhibition of human KP-N-YS cell growth in a cell viability assay.

CGTH-W-1 = format: functional, cell-based, Homo sapiens; details: Homo sapiens, CGTH-W-1;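 note: growth inhibition of human CGTH-W-1 cells measured by cell viability assay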
Description: SANGER: Inhibition of human CGTH-W-1 cell growth in a cell viability assay.

MPP-89 = format: functional, cell-based, Homo sapiens; details: Homo sapiens, MPP-89;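 note: growth inhibition of human MPP-89 cells, read out with a cell viability assay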
Description: SANGER: Inhibition of human MPP-89 cell growth in a cell viability assay.

LB2241-RCC = format: functional, cell-based, Homo sapiens; details: Homo sapiens, LB2241-RCC;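 note: cell viability assay measuring how strongly the cultured human renal carcinoma line is prevented from growing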
Description: SANGER: Inhibition of human LB2241-RCC cell growth in a cell viability assay.

NTERA-2-cl-D1 = format: functional, cell-based, Homo sapiens; details: Homo sapiens, NTERA-2-cl-D1;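 note: inhibition of cell growth, measured with a cell viability assay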
Description: SANGER: Inhibition of human NTERA-S-cl-D1 cell growth in a cell viability assay.

MZ2-MEL = format: functional, cell-based, Homo sapiens; details: Homo sapiens, MZ2-MEL;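 note: growth inhibition of MZ2-MEL cells read out with a cell viability assay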
Description: SANGER: Inhibition of human MZ2-MEL cell growth in a cell viability assay.

NCI-H1838 = format: functional, cell-based, Homo sapiens; details: Homo sapiens, NCI-H1838;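 note: growth inhibition of NCI-H1838 cells, determined with a cell viability readout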
Description: SANGER: Inhibition of human NCI-H1838 cell growth in a cell viability assay.

MV4-11 = format: functional, cell-based, Homo sapiens, MV-4-11; details: Homo sapiens, MV4-11;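 note: cell viability readout measuring growth inhibition of human MV-4-11 cells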
Description: SANGER: Inhibition of human MV-4-11 cell growth in a cell viability assay.

ML-2 = format: functional, cell-based, Homo sapiens; details: Homo sapiens, ML-2;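 note: growth inhibition of ML-2 cells, measured with a cell viability readout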
Description: SANGER: Inhibition of human ML-2 cell growth in a cell viability assay.

EM-2 = format: functional, cell-based, Homo sapiens; details: Homo sapiens, EM-2;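 note: growth inhibition of EM-2 cells, read out with a cell viability assay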
Description: SANGER: Inhibition of human EM-2 cell growth in a cell viability assay.

8-MG-BA = format: functional, cell-based, Homo sapiens; details: Homo sapiens, 8-MG-BA;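 note: growth inhibition of 8-MG-BA cells, read out with a cell viability assay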
Description: SANGER: Inhibition of human 8-MG-BA cell growth in a cell viability assay.

IST-SL1 = format: functional, cell-based, Homo sapiens; details: Homo sapiens, IST-SL1;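 note: growth inhibition of human IST-SL1 cells, read out with a cell viability assay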
Description: SANGER: Inhibition of human IST-SL1 cell growth in a cell viability assay.

BB49-HNC = format: functional, cell-based, Homo sapiens; details: Homo sapiens, BB49-HNC;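 note: cell viability assay read-out, reported as inhibition of BB49-HNC cell growth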
Description: SANGER: Inhibition of human BB49-HNC cell growth in a cell viability assay.

SW872 = format: functional, cell-based, Homo sapiens; details: Homo sapiens, SW872;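 note: growth inhibition of SW872 cells, read out by a viability assay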
Description: SANGER: Inhibition of human SW872 cell growth in a cell viability assay.

LAN-6 = format: functional, cell-based, Homo sapiens; details: Homo sapiens, LAN-6;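 note: growth inhibition of LAN-6 cells, determined with a cell viability assay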
Description: SANGER: Inhibition of human LAN-6 cell growth in a cell viability assay.

SF-126 = format: functional, cell-based, Homo sapiens; details: Homo sapiens, SF-126;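 note: growth inhibition of human SF126 cells, read out with a cell viability assay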
Description: SANGER: Inhibition of human SF126 cell growth in a cell viability assay.

DB = format: functional, cell-based, Homo sapiens; details: Homo sapiens, DB
Description: SANGER: Inhibition of human DB cell growth in a cell viability assay.

LS-513 = format: functional, cell-based, Homo sapiens; details: Homo sapiens, LS-513
Description: SANGER: Inhibition of human LS-513 cell growth in a cell viability assay.

HCC 2998 = format: functional, cell-based, Homo sapiens; details: Homo sapiens, HCC 2998;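 note: growth inhibition of human HCC2998 cells, measured with a cell viability read-out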
Description: SANGER: Inhibition of human HCC2998 cell growth in a cell viability assay.

ES7 = format: functional, cell-based, Homo sapiens; details: Homo sapiens, ES7;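 note: growth inhibition of cultured human ES7 cells, read out as cell viability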
Description: SANGER: Inhibition of human ES7 cell growth in a cell viability assay.

KU812 cell line = format: functional, cell-based, Homo sapiens; details: Homo sapiens, KU812;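 note: growth inhibition of KU812 cells, read out with a cell viability assay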
Description: SANGER: Inhibition of human KU812 cell growth in a cell viability assay.

A253 cell line = format: functional, cell-based, Homo sapiens; details: Homo sapiens, A253;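 note: growth inhibition of A253 cells, read out with a cell viability assay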
Description: SANGER: Inhibition of human A253 cell growth in a cell viability assay.

NCI-H1395 = format: functional, cell-based, Homo sapiens; details: Homo sapiens, NCI-H1395;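 note: cell viability assay read-out quantifying reduced proliferation of human NCI-H1395 cells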
Description: SANGER: Inhibition of human NCI-H1395 cell growth in a cell viability assay.

OCUB-M = format: functional, cell-based, Homo sapiens; details: Homo sapiens, OCUB-M;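 note: growth inhibition of the cancer cell line, read out through a cell viability assay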
Description: SANGER: Inhibition of human OCUB-M cell growth in a cell viability assay.

NCI-H1304 = format: functional, cell-based, Homo sapiens; details: Homo sapiens, NCI-H1304;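 note: growth inhibition of the cancer cell line, measured in a cell viability assay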
Description: SANGER: Inhibition of human NCI-H1304 cell growth in a cell viability assay.

KS-1 = format: functional, cell-based, Homo sapiens; details: Homo sapiens, KS-1;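 note: growth inhibition of KS-1 cells, read out with a cell viability assay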
Description: SANGER: Inhibition of human KS-1 cell growth in a cell viability assay.

NCI-H720 = format: functional, cell-based, Homo sapiens; details: Homo sapiens, NCI-H720;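 note: growth inhibition of human NCI-H720 cells determined by a cell viability assay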
Description: SANGER: Inhibition of human NCI-H720 cell growth in a cell viability assay.

GOTO = format: functional, cell-based, Homo sapiens; details: Homo sapiens, GOTO;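 note: growth inhibition of GOTO cells, read out by a cell viability assay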
Description: SANGER: Inhibition of human GOTO cell growth in a cell viability assay.

CAS-1 = format: functional, cell-based, Homo sapiens; details: Homo sapiens, CAS-1;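 note: growth inhibition of CAS-1 cells, measured with a cell viability assay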
Description: SANGER: Inhibition of human CAS-1 cell growth in a cell viability assay.

ONS-76 = format: functional, cell-based, Homo sapiens; details: Homo sapiens, ONS-76;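 note: growth inhibition of human ONS-76 cells, read out with a cell viability assay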
Description: SANGER: Inhibition of human ONS-76 cell growth in a cell viability assay.

697 = format: functional, cell-based, Homo sapiens; details: Homo sapiens
Description: SANGER: Inhibition of human 697 cell growth in a cell viability assay.

NB17 = format: functional, cell-based, Homo sapiens; details: Homo sapiens, NB17;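 note: growth inhibition of NB17 cells, read out with a cell viability assay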
Description: SANGER: Inhibition of human NB17 cell growth in a cell viability assay.

HDLM-2 = format: functional, cell-based, Homo sapiens; details: Homo sapiens, HDLM-2;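 note: cell viability assay measuring suppression of HDLM-2 proliferation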
Description: SANGER: Inhibition of human HDLM-2 cell growth in a cell viability assay.

L-428 = format: functional, cell-based, Homo sapiens; details: Homo sapiens, L-428
Description: SANGER: Inhibition of human L-428 cell growth in a cell viability assay.

SNU1 = format: functional, cell-based, Homo sapiens; details: Homo sapiens, SNU1;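 note: growth inhibition of human NCI-SNU-1 cells, measured with a cell viability assay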
Description: SANGER: Inhibition of human NCI-SNU-1 cell growth in a cell viability assay.

HCE-4 = format: functional, cell-based, Homo sapiens; details: Homo sapiens, HCE-4;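 note: cell viability assay measuring inhibition of growth in the human HCE-4 cell line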
Description: SANGER: Inhibition of human HCE-4 cell growth in a cell viability assay.

TGBC1TKB = format: functional, cell-based, Homo sapiens; details: Homo sapiens, TGBC1TKB;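 note: growth inhibition of TGBC1TKB cells, read out by a cell viability assay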
Description: SANGER: Inhibition of human TGBC1TKB cell growth in a cell viability assay.

NCI-H2126 = format: functional, cell-based, Homo sapiens; details: Homo sapiens, NCI-H2126;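 note: growth inhibition of the cancer cell line, determined with a cell viability readout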
Description: SANGER: Inhibition of human NCI-H2126 cell growth in a cell viability assay.

KY821 = format: functional, cell-based, Homo sapiens; details: Homo sapiens, KY821;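 note: growth inhibition of human KY821 cells, read out by a cell viability assay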
Description: SANGER: Inhibition of human KY821 cell growth in a cell viability assay.

SMILES: COc1cc2c(Nc3ccc(NC(=O)c4ccccc4)cc3)ncnc2cc1OCCCN1CCOCC1
- IC50 (P30-OHK): > 4 µM
- IC50 (K562): > 4 µM
- IC50 (Mo): > 4 µM
- IC50 (MZ7-mel): > 4000 nM
- IC50 (A3-KAW): > 4 µM
- IC50 (Calu-6): > 4000 nM
- IC50 (NOS-1): > 4000 nM
- IC50 (SF-539): > 4000 nM
- IC50 (NB69): 3230 nM
- IC50 (KP-N-YS): > 4 µM
- IC50 (CGTH-W-1): 2620 nM
- IC50 (MPP-89): > 4000 nM
- IC50 (LB2241-RCC): 1040 nM
- IC50 (NTERA-2-cl-D1): > 4000 nM
- IC50 (MZ2-MEL): > 4000 nM
- IC50 (NCI-H1838): > 4000 nM
- IC50 (MV4-11): 796 nM
- IC50 (ML-2): > 4 µM
- IC50 (EM-2): 1420 nM
- IC50 (8-MG-BA): > 4000 nM
- IC50 (IST-SL1): 1320 nM
- IC50 (BB49-HNC): > 4000 nM
- IC50 (SW872): > 4000 nM
- IC50 (LAN-6): > 4000 nM
- IC50 (SF-126): > 4000 nM
- IC50 (DB): > 4 µM
- IC50 (LS-513): > 4000 nM
- IC50 (HCC 2998): > 4 µM
- IC50 (ES7): > 4000 nM
- IC50 (KU812 cell line): > 4 µM
- IC50 (A253 cell line): > 4000 nM
- IC50 (NCI-H1395): > 4000 nM
- IC50 (OCUB-M): 2250 nM
- IC50 (NCI-H1304): > 4 µM
- IC50 (KS-1): > 4000 nM
- IC50 (NCI-H720): 1210 nM
- IC50 (GOTO): > 4000 nM
- IC50 (CAS-1): > 4000 nM
- IC50 (ONS-76): > 4000 nM
- IC50 697: 739 nM
- IC50 (NB17): > 4000 nM
- IC50 (HDLM-2): > 4 µM
- IC50 (L-428): > 4 µM
- IC50 (SNU1): 3.11 µM
- IC50 (HCE-4): > 4000 nM
- IC50 (TGBC1TKB): > 4000 nM
- IC50 (NCI-H2126): > 4000 nM
- IC50 (KY821): > 4 µM

- IC50 (MZ7-mel): 1730 nM
- IC50 (Calu-6): 887 nM
- IC50 (NOS-1): 235 nM
- IC50 (SF-539): 470 nM
- IC50 (NB69): 877 nM
- IC50 (CGTH-W-1): 186 nM
- IC50 (MPP-89): 1270 nM
- IC50 (LB2241-RCC): 147 nM
- IC50 (NTERA-2-cl-D1): 167 nM
- IC50 (MZ2-MEL): 212 nM
- IC50 (NCI-H1838): 2160 nM
- IC50 (8-MG-BA): 154 nM
- IC50 (IST-SL1): 438 nM
- IC50 (BB49-HNC): 2010 nM
- IC50 (SW872): 58.9 nM
- IC50 (LAN-6): 160 nM
- IC50 (SF-126): 57.1 nM
- IC50 (LS-513): 607 nM
- IC50 (HCC 2998): 5.89 µM
- IC50 (ES7): 270 nM
- IC50 (A253 cell line): 570 nM
- IC50 (NCI-H1395): 612 nM
- IC50 (OCUB-M): 243 nM
- IC50 (KS-1): 322 nM
- IC50 (GOTO): 171 nM
- IC50 (CAS-1): 2780 nM
- IC50 (ONS-76): 325 nM
- IC50 (NB17): 1060 nM
- IC50 (HCE-4): 469 nM
- IC50 (TGBC1TKB): 1130 nM
- IC50 (NCI-H2126): 782 nM
SMILES: CC(C)c1ccccc1Cc1cc(C(=O)Nc2ccc(S(=O)(=O)c3ccccc3C(C)(C)C)cc2)c(O)c(O)c1O

Reference: ChEMBL document CHEMBL1201861, “Genomics of Drug Sensitity in Cancer screening data, Wellcome Trust Sanger Institute”
